The subject of one series is A549 cells. Description: Cell counting (proliferation) assay in A549 cells. It counts as cell-based, human. More on the design: IC10 Estimate, dataset 2 - Fig 7a, log 10 scale Y: unit not given here. The following applies: for IC50 / IC90: Homo sapiens. How it is done:
A549 and H2030 cells cultured in RPMI 1640 containing 5% FBS in 12 well-plates at 20% confluence were treated with Oxy210 for 6 days and then trypsinized, spun down and resuspended in fresh medium. For the Carboplatin (CP) and Oxy210 co-treatment experiments, A549 cells cultured in RPMI 1640 containing 2% FBS in 12 well-plates at 20% confluence were treated with CP at different concentrations in the presence or absence of Oxy210 for 6 days. For the TGFβ-induced drug resistance assay, A549 cells cultured in RPMI 1640 containing 2% FBS in 12 well-plates at 10% confluence were pre-treated with TGFβ1 alone or together with Oxy210 for 3 days, and then treated with 20 μM CP for 4 days. An aliquot of cell suspension was applied to a hemocytometer and the cells were then counted under a light microscope.
Statistical analyses were performed using the StatView 5 program (SAS Institute, Cary, NC, USA). All p values were calculated using ANOVA and Fisher’s projected least significant difference (PLSD) significance test. A value of p < 0.05 was considered significant. The IC 50 dose-response curves shown in Figure 4b and Figure 7a–c were modeled using a five-parameter logistic model. This model allows for asymmetric curves and automatically estimates the mean maximum and minimum response. Based on this model, IC 50 values were estimated corresponding to the dose halfway between min and max response. Models of dose versus response and dose versus log response were also evaluated (see Supplementary Materials). The R square statistic was computed as a measure of model fit.
Figure 7 Inhibition of NSCLC cell proliferation by Oxy210. A549 (a), (c) and H2030 (b) cells were treated with the test agents as indicated in RPMI 1640 containing 5% FBS for 5 days and then were trypsinized and counted as described in Methods and Materials section. Data from a representative experiment are reported as the mean of triplicate determinations ± SD (* p < 0.05 vs. control; ** p < 0.01 vs. control).

Another series concerns the target T1, Human TGFBR1 (Homo sapiens, UniProt P36897).
T1 construct: Human TGFBR1 (amino acid 200 to end); purchased Eurofins
T1 sequence (P36897 200-503 limits assumed): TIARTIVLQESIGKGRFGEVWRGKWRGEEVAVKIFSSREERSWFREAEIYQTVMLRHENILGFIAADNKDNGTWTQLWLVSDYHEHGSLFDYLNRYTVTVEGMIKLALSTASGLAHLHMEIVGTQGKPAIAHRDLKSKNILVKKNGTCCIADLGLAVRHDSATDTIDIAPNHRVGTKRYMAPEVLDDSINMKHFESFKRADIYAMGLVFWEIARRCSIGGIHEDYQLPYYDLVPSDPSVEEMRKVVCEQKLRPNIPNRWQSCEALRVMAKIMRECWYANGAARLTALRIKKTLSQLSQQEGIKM
Description: TGFβ receptor I kinase inhibition assay (Eurofins). Format: biochemical. The following applies: vs. positive controls Cdk1/2 Inhibitor III and PKR Inhibitor. How it is done:
Effect of Oxy210 on inhibition of TGFβ receptors I and II kinase activity was assessed by Eurofins (Celle-L’Evescault, France). TGFBR1 (h): Human TGFBR1 (amino acid 200 to end) was incubated with 8 mM MOPS pH 7.0, 0.2 mM EDTA, 1 mM MnCl2, 2 mg/mL casein, 10 mM Magnesium acetate and […] (specific activity and concentration as required). The reaction was initiated by the addition of the Mg/ATP mix. After incubation for 40 min at room temperature, the reaction was stopped by the addition of phosphoric acid to a concentration of 0.5%. 10 μL of the reaction was then spotted onto a P30 filtermat and washed four times for 4 min in 0.425% phosphoric acid and once in methanol prior to drying and scintillation counting. TGFBR2 (h): Human TGFBR2 (amino acid 188-end) was incubated with 20 mM Tris/HCl pH 8.5, 0.2 mM EDTA, 0.33 mg/mL MBP, 10 mM Magnesium acetate and [9-33P-ATP] (specific activity and concentration as required). The reaction was initiated by the addition of the Mg/ATP mix. After incubation for 120 min at room temperature, the reaction was stopped by the addition of phosphoric acid to a concentration of 0.5%. […]
Figure 11 Inhibition of TGFβ-induced Smad2/3 phosphorylation and transcriptional activity. […] Luciferase activity was measured and normalized to the Renilla luciferase activity. […]

A further series has as its system Liver X Receptor (LXR). Description: LXR activity, summary of drug-like properties. Format: cell-based.
A further series is described as follows: pKa. It counts as physicochemical. The following applies: printed in Figure 1, method not stated. The text has this:
Figure 1 The molecular structures of Cholesterol, Oxy8, Oxy133, Oxy16, Oxy186 and Oxy210. TEXT PRINTED IN THE PICTURE: Oxy210: pKa ~ 5

Where two headings read alike, the source gives them in different places.

Take `C[C@]12CC[C@H]3[C@@H](CC=C4C[C@@H](O)CC[C@@]43C)[C@@H]1CC[C@@H]2[C@](C)(O)CCc1cccnc1` [Oxy210, (3S,8S,9S,10R,13S,14S,17S)-17-((R)-2-hydroxy-4-(pyridin-3-yl)butan-2-yl)-10,13-dimethyl-2,3,4,7,8,9,10,11,12,13,14,15,16,17-tetradecahydro-1H-cyclopenta[a]phenanthren-3-ol]: the “fold reduction (left shift) of the IC50 of CP” value with A549 cells (A549 cells, 2 μM Oxy210) is given as “about four-fold”. The “anti-proliferation potential of CP when combined” value in the series on A549 cells (A549 cells, non-cytotoxic concentrations of CP (1 to 10 μM)) was “significantly improved”. Further, in the series with A549 cells (A549 cells/well, log 10 scale Y), the “IC10 Estimate, dataset 2 - Fig 7a, log 10 scale Y” value is 2.61. In addition, the IC10 Estimate, dataset 2 - Fig 7a, original scale Y in the series on A549 cells (A549 cells/well, original scale Y) was 1.92 µM. Further, the IC50 in the series on A549 cells (A549 cells, 5% FBS, ± SE, read-out: IC50, anti-proliferative effect (cell counting)) was 2.63 ± 1.01 µM; with A549 cells (A549 cells/well, log 10 scale Y, read-out: IC 50 Estimate, dataset 2 - Fig 7a, log 10 scale Y (converted)), 4.23 µM. For the same molecule, the concentration for an effect of 90% (IC90) in the series with A549 cells (A549 cells/well, log 10 scale Y, read-out: IC90 Estimate, dataset 2 - Fig 7a, log 10 scale Y (converted)) is 6.87 µM; in the series with A549 cells (A549 cells/well, original scale Y, read-out: IC90 Estimate, dataset 2 - Fig 7a, original scale Y), 4.18 µM. Moreover, the “inhibitory activity on TβRI in functional kinase assay” value against Human TGFBR1 is reported as “did not display significant inhibitory activity”. The LXR activity result in the series on Liver X Receptor (LXR) is recorded as “devoid of undesirable Liver X Receptor (LXR) activity”. Further, in “pKa”, the pKa was ~5.

The values are drawn from paper PMC6829886, “Inhibition of Non-Small Cell Lung Cancer Cells by Oxy210, an Oxysterol-Derivative that Antagonizes TGFβ and Hedgehog Signaling” (Cells, 2019).
